# Like-named read-outs stand apart in the source and are kept apart here.
# How the values were obtained:
# HCT-15 = test: Cytotoxicity (ATPlite, 72 h) on HCT-15; assay type: cell-based, human; settings: HCT-15 (colon), read-out: IC50 values (μM ± SEM)
# Description: (§1) The compounds C8 and C21 identified in the previous assay of enzymatic activity were tested on 8 tumour cell lines representative of different solid tumours: MDA-MB231 and MCF7 (mammary tumour; ATCC, LGC Standards S.r.L, Sesto San Giovanni, MI), PEO1 and COV318 (ovarian tumour; ECACC, Saltssbury, UK), HCT-15 and SW948 (colon tumour; ECAC and ATCC, Sesto San Giovanni, MI), NCI-H1975 and NCI-H1299, (lung tumour; ATCC). Through experiments of cytotoxicity the capability of such compounds of inhibiting the cell growth was evaluated.
# (§2) The cell lines were kept in culture in 75-cm^2 average flasks in atmosphere humidified with 5% CO2/95% air in the following media: DMEM supplemented with 10% FBS, 1% Kanamycin, 1% amino acids not essential for MDA-MB231 and MCF7; RPMI 10% FBS, 1% Kanamycin, 1% amino acids not essential for COV318, NCI-H1975 and NCI-H1299, with addition of 2 mM Sodium Pyruvate for PEO-1; RPMI 20% FBS, 1% Kanamycin, 1% amino acids not essential for HCT-15; LEIBOVITZ'S L15, 10% FBS, 1% Kanamycin, 1% amino acids not essential for SW948. All reagents were purchased at Sigma-Aldrich (St. Louis, MO) if not otherwise specified.
# HCT-15 were plated (40,000 cells/ml) in a 96-well black plate. […] 24 h after plating the compounds were added in quadruplicate at the following concentrations: C8 (6 μM; 12 μM; 24 μM; 48 μM; 96 μM; 192 μM) and C21 (8 μM; 16 μM; 32 μM; 64 μM; 128 μM; 256 μM). […] The compound 21 has no inhibitory activity (IC50>100 μM), (Table 1).
# NCI-H1299 = test: Cytotoxicity (ATPlite, 72 h) on NCI-H1299; assay type: cell-based, human; settings: NCI-H1299 (lung), read-out: IC50 values (μM ± SEM)
# Description: as §1, §2
# 24 h after plating the compounds were added in quadruplicate at the following concentrations: C8 (6 μM; 12 μM; 24 μM; 48 μM; 96 μM; 192 μM) and C21 (8 μM; 16 μM; 32 μM; 64 μM; 128 μM; 256 μM). […] The compound 21 has no inhibitory activity (IC50>100 μM), (Table 1).
# NCI-H1975 = test: Cytotoxicity (ATPlite, 72 h) on NCI-H1975; assay type: cell-based; settings: Homo sapiens, NCI-H1975 (lung), read-out: IC50 values (μM ± SEM)
# Description: as §1, §2
# (§3) 24 h after plating the compounds were added in quadruplicate at the following concentrations: C8 (6 μM; 12 μM; 24 μM; 48 μM; 96 μM; 192 μM) and C21 (8 μM; 16 μM; 32 μM; 64 μM; 128 μM; 256 μM).
# MDA-MB-231 = test: Cytotoxicity (ATPlite, 72 h) on MDA-MB-231; assay type: cell-based, human; settings: MDA-MB-231 (breast), read-out: IC50 values (μM ± SEM)
# Description: as §1, §2
# 24 h after plating the compounds were added in quadruplicate at the following concentrations: C8 (6 μM; 12 μM; 24 μM; 48 μM; 96 μM; 192 μM) and C21 (8 μM; 16 μM; 32 μM; 64 μM; 128 μM; 256 μM). […] Similarly, the compound 21 inhibits the growth by 50% at 75±12 μM.
# MCF-7 = test: Cytotoxicity (ATPlite, 72 h) on MCF-7; assay type: cell-based; settings: Homo sapiens, MCF7, MCF-7 (breast), read-out: IC50 values (μM ± SEM)
# Description: as §1, §2
# MCF-7 were plated (40,000 cells/ml) in a 96-well black plate. […] 24 h after plating the compounds were added in quadruplicate at the following concentrations: C8 (6 μM; 12 μM; 24 μM; 48 μM; 96 μM; 192 μM) and C21 (8 μM; 16 μM; 32 μM; 64 μM; 128 μM; 256 μM).
# SW948 = test: Cytotoxicity (ATPlite, 72 h) on SW948; assay type: cell-based; settings: Homo sapiens, SW948 (colon), read-out: IC50 values (μM ± SEM)
# Description: as §1, §2, §3
# NEK6 [1] = biological target: T1, NEK6 (Homo sapiens, UniProt Q9HC98); test: LANCE-Ultra NEK6 kinase assay; assay type: biochemical; settings: for IC50: LANCE-Ultra, 4 nM NEK6, 50 nM ULight-p70 S6K peptide, 100 μM ATP, 90 min, average of 4 experiments ± SEM, read-out: IC50 of NEK6 activity inhibition; for NEK6 activity inhibition in screening: single concentration 30 μM, FIG. 1
# T1 sequence (Q9HC98 whole entry): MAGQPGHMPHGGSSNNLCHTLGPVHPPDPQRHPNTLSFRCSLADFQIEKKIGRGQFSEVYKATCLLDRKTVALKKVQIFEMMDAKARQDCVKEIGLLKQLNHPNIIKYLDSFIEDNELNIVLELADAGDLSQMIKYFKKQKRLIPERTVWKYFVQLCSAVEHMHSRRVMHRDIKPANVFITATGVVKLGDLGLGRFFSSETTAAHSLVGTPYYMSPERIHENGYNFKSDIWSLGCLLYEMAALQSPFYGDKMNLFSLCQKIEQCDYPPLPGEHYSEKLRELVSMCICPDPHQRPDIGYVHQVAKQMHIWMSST
# Description: FIG. 1. NEK6 activity inhibition. Bar graph representing the results of the screening of several compounds at 30 μM by using LANCE-Ultra NEK6 kinase assay (PerkinElmer) incubated with 4 nM NEK6, 50 nM ULight-p70 S6K Peptide and 100 μM ATP for 90 minutes at room temperature. As control inhibitor quercetin was used.
# FIG. 2. FIG. 2 represents the molecules identified with inhibitory activity on NEK6 by using LANCE-Ultra NEK6 kinase assay (PerkinElmer). The curves represent the % of NEK6 activity depending upon the inhibitor concentration. A) The compound 8 (ZINC05007751) is capable of inhibiting the NEK6 activity with 1050=3.4±1.2 μM; B) the compound 21 (ZINC04384801) inhibits NEK6 at 1050=2.6±0.05 μM. The IC50 value derives from the average of IC50s of 4 independent experiments±SEM. Each point of the curve represents the average of a triplicate±SEM of a representative experiment.
# The compounds in powder (Molport, Riga, LV-1011, Latvia) were dissolved in DMSO 100% at a stock concentration of 10 mM. The fresh compounds were tested initially at a single concentration (30 μM) with LANCE NEK6 Ultra Kinase Assays (Perkin Elmer, Monza (MB)), whereas the remaining solution was aliquoted, kept at −20° C. and used for the enzymatic inhibition curves of the selected compounds. The reaction was performed in 384-OptiPlate™-384 (PerkinElmer #6007290) white plates, by using as reagents the Europium-labeled anti-phospho-p70 S6K (Thr389) Antibody (PerkinElmer #TRF0214), ULight-p70 S6K (Thr389) (PerkinElmer #TRF0126), NEK6 (Carna, Chuo-ku, Kobe, Japan, #05-130), LANCE® Detection Buffer, 10×(PerkinElmer #CR97-100), ATP (Sigma-Aldrich, Saint Louis, U.S.A, #A2383). NEK6, ATP and the compounds were diluted in Kinase Buffer (50 mM HEPES pH 7.5, 1 mM EGTA, 10 mM MgCl2, 2 mM DTT and 0.01% Tween-20), and where necessary DMSO was added to obtain a concentration of 0.3% in the final reaction volume. For the initial screening the compounds were tested at the final concentration of 30 μM, final DMSO 0.3% in kinase buffer and incubated with 4 nM NEK6, 50 nM ULight-p70 S6K Peptide and 100 μM ATP, in a reaction volume of 10 μL for 90 minutes at room temperature. As control inhibitor quercetin (Molport #001-740-557) was used. For the enzymatic inhibition curves, the selected compounds C8 (Molport #002-933-483), C21 (Molport #000-911-820) were diluted serially (dilutions 1:2) from 30 μM to 0.9375 μM (final concentrations: 30 μM; 15 μM; 7.5 μM; 3.75; 1.875 μM; 0.9375 μM in 0.3% DMSO) and incubated under the same conditions. […] After the film removal, the signal was read at the Enspire (PerkinElmer) plate reader (excitation 320 nm and emission at 665 nm). The % of enzymatic activity of NEK6 was calculated with respect to the control (100% activity), after subtracting the white of the experiment.
# NEK6 [2] = biological target: T1, NEK6; test: Off-chip Mobility Shift Assay (MSA); assay type: biochemical; settings: CDK7 peptide 1000 nM, 5 h
# Description: The inhibitory activity on NEK6 of the compounds C8 and C21 was checked with the technique of Off-chip Mobility Shift Assay (MSA) (CARNA Biosciences Study ID: CBS170097, CARNA Biosciences, Kobe). […] PKR inhibitor was used as positive control. […] of solution 4× of the compounds, […] of 4× Substrate/ATP/Metal solution, and […] of 2× kinase solution were prepared with the reaction buffer (20 mM HEPES, 0.01% Triton X-100, 1 mM DTT, pH7.5), mixed and incubated in wells of polypropylene in 384-well plate for 5 hours at room temperature. Afterwards, […] of Termination Buffer (QuickScout Screening Assist MSA; Carna Biosciences) were added. One proceeded with analysing the reaction with LabChip system (Perkin Elmer), by separating and quantizing the peaks of product and substrate. The kinase reaction was then evaluated based upon the ratio (P/(P+S)) calculated based upon the heights of peak of peptides product (P) and substrate (S). The reading value of the control reaction (complete reaction mix) was placed as 0% of inhibition and the bottom value (Enzima (−)) was placed as 100% of inhibition, then the inhibition percentage of each sample was calculated. The value of IC50 was calculated by means of a logistic model at 4 parameters of the inhibition curves by adaptation to a four-parameter logistic curve.
# COV318 = test: Cytotoxicity (ATPlite, 72 h) on COV318; assay type: cell-based; settings: Homo sapiens, COV318 (ovary), read-out: IC50 values (μM ± SEM)
# Description: as §1, §2, §3
# PEO-1 [3] = test: Cytotoxicity (ATPlite, 72 h) on PEO-1; assay type: cell-based; settings: Homo sapiens, PEO1, 72 h, PEO-1 (ovary), read-out: IC50 values (μM ± SEM)
# Description: as §1, §2
# 24 h after plating the compounds were added in quadruplicate at the following concentrations: C8 (6 μM; 12 μM; 24 μM; 48 μM; 96 μM; 192 μM) and C21 (8 μM; 16 μM; 32 μM; 64 μM; 128 μM; 256 μM). […]
# PEO-1 [4] = test: Cytotoxic effect of compound 8 in combination with Cisplatin in PEO-1; assay type: cell-based, human; settings: PEO-1, 72 h; IC50 of cisplatin alone or with C8 fixed at 44 μM; read-out: IC50 (μM ± SEM)
# Description: Cisplatin (Sigma-Aldrich, St. […] The luminescence signal was read at the instrument […]). […] Parallelly, the single curves of Cisplatin and compound 8 were performed. […] Pharmacol Rev. 2006; 58:621-81).
# PEO-1 [5] = test: cells; settings: Homo sapiens, PEO1, 72 h, read-out: IC50 (nM ± SEM)
# Description: In order to prepare the cytotoxicity experiments the cells were trypsinized, counted with NEUBAUER chamber and plated in black plate having 96 wells per line (Perkinelmer). MDA-MB231, PEO-1, COV318, SW948, NCI-H1975 and NCI-H1299, were plated at 100,000 cells/ml, HCT-15 and MCF-7 at 40,000 cells/ml, In each well of the plate 200 μl of cell suspension were added. […] Parallelly, the single curves of each drug and of C8 were performed.
# After 72 h from the addition of the compounds and/or drugs, the effect on the cell growth was evaluated by using the kit ATPlite (PerkinElmer) following the manufacturer's specifications. The luminescence signal was read at the instrument ENspire (PerkElmer). For each treated line, the % of inhibition of the growth with respect to the control and IC50 was calculated with software GraphPad Prism5 Software (San Diego, CA, USA). The combination index (CI) was calculated by using the program Compusyn (downloadable from www.combosyn.com), for the analysis of the combined effects of drugs based upon the equation of Chou-Talalay (Chou-Talalay, Adv Enzyme Regul 1984; 22:27-55). CI<1, =1, and >1 designates synergism, additive effect and antagonism, respectively.
# PEO-1 were plated (100,000 cells/ml) in a 96-well black plate. In each well of the plate 200 μl of cell suspension were added.
IC50 (PEO-1 [5]) [nM],SMILES,IC50 (HCT-15) [µM],"IC50 (HCT-15; Homo sapiens, HCT-15, 72 h) [µM]","IC50 (NCI-H1299; Homo sapiens, NCI-H1299, 72 h) [µM]",IC50 (NCI-H1299) [µM],IC50 (NCI-H1975) [µM],"IC50 (MDA-MB-231; Homo sapiens, MDA-MB-231, 72 h) [µM]",IC50 (MDA-MB-231) [µM],IC50 (MCF-7) [µM],IC50 (SW948) [µM],IC50 (NEK6 [1]) [µM],NEK6 activity inhibition in screening (NEK6 [1]),IC50 (NEK6 [2]) [µM],IC50 (COV318) [µM],IC50 (PEO-1 [3]) [µM],IC50 (PEO-1 [4]) [µM]
,"CC1=C(C#N)C(O)=NC(=O)/C1=C\c1ccc(-c2ccccc2)o1 [C8, (5Z)-2-hydroxy-4-methyl-6-oxy-5-[(5-phenylfuran-2il)methylidene]-5,6-dihydropyridine-3-carbonitrile]",98.5 ± 0.5,< 100,< 100,87.8 ± 10,> 100,< 100,65 ± 15,> 100,> 100,3.4 ± 1.2,most active,13.8,> 100,,
,"Nc1nc2c(c(=O)[nH]1)C(c1ccccc1)C1=C(N2)c2ccccc2C1=O (stereo not drawn) [C21, 6-amino-2-phenyl-5,7,9-triazatetracycle[8.7.0.0^3,^8.0^11,^16]heptadeca 1(10),3(8),6,11,13,15 hexaene-4, 17-dione]",,> 100,> 100,,> 100,< 100,75 ± 12,> 100,> 100,2.6 ± 0.05,most active,49.8,> 100,> 100,
,N.N.[Cl][Pt][Cl] [Cisplatin],,,,,,,,,,,,,,,7.9 ± 0.65
7 ± 0.001,CC(=O)O[C@H]1C(=O)[C@@]2(C)[C@H]([C@H](OC(=O)c3ccccc3)[C@]3(O)C[C@H](OC(=O)[C@H](O)[C@@H](NC(=O)c4ccccc4)c4ccccc4)C(C)=C1C3(C)C)[C@]1(OC(C)=O)CO[C@@H]1C[C@@H]2O [Paclitaxel],,,,,,,,,,,,,,,

# From US11820758B2, “NEK6 kinase inhibitors useful for the treatment of solid tumors” (CONSIGLIO NAZIONALE DELLE RICERCHE, priority 2018, dated 2023)
